From the OligoGym collection
HELM strings list units from the 5' end as sugar, base in round brackets, then linkage (d deoxyribose, r ribose, m 2'-O-methyl, p phosphodiester). Strings are as the collection lists them; they lack the last nucleoside at the 3' end of the tested compound. [moe] = 2'-O-(2-methoxyethyl) (MOE); [sp] = phosphorothioate linkage; [m5C] = 5-methylcytosine

These substances were tested against PRNP (assay: mouse, dose not given). Conditions: ASO.
Substance “RNA1{[moe](A)[sp].[moe](G)p.[moe]([m5C])p.[moe](T)p.[moe]([m5C])[sp].d(T)[sp].d(A)[sp].d(T)[sp].d(T)[sp].d(A)[sp].d(A)[sp].d(T)[sp].d(A)[sp].d(G)[sp].d(G)[sp].[moe](T)p.[moe](T)p.[moe](A)[sp].[moe](G)}$$$$ (last 3' nucleoside missing)” has a 3 h FOB score of 5.5 score 0-7.
“RNA1{[moe](G)[sp].[moe](T)p.[moe](A)p.[moe](T)p.[moe](G)[sp].d(T)[sp].d([m5C])[sp].d(A)[sp].d(A)[sp].d(A)[sp].d(A)[sp].d(T)[sp].d([m5C])[sp].d(A)[sp].d(T)[sp].[moe](T)p.[moe]([m5C])p.[moe](T)[sp].[moe](G)}$$$$ (last 3' nucleoside missing)” was tested, and the 3 h FOB score was 6 score 0-7.
In the case of “RNA1{[moe](T)[sp].[moe](T)p.[moe]([m5C])p.[moe]([m5C])p.[moe](A)[sp].d(G)[sp].d([m5C])[sp].d(T)[sp].d(T)[sp].d([m5C])[sp].d(T)[sp].d(T)[sp].d(A)[sp].d(A)[sp].d(T)[sp].[moe](G)p.[moe]([m5C])p.[moe](A)[sp].[moe](T)}$$$$ (last 3' nucleoside missing)”, the 3 h FOB score is reported as 0 score 0-7.
“RNA1{[moe](A)[sp].[moe](T)p.[moe](G)p.[moe](T)p.[moe](T)[sp].d(T)[sp].d(T)[sp].d([m5C])[sp].d([m5C])[sp].d(A)[sp].d(G)[sp].d(T)[sp].d(G)[sp].d([m5C])[sp].d([m5C])[sp].[moe]([m5C])p.[moe](A)p.[moe](T)[sp].[moe]([m5C])}$$$$ (last 3' nucleoside missing)” showed a 3 h FOB score of 5.75 score 0-7.
“RNA1{[moe](G)[sp].[moe](T)p.[moe](G)p.[moe](T)p.[moe]([m5C])[sp].d(A)[sp].d(T)[sp].d(A)[sp].d(A)[sp].d(T)[sp].d(T)[sp].d(T)[sp].d(T)[sp].d([m5C])[sp].d(T)[sp].[moe](T)p.[moe](A)p.[moe](G)[sp].[moe]([m5C])}$$$$ (last 3' nucleoside missing)” showed a 3 h FOB score of 0.5 score 0-7.
For “RNA1{[moe](G)[sp].[moe](A)p.[moe](G)p.[moe](T)p.[moe](G)[sp].d(A)[sp].d(A)[sp].d(T)[sp].d(T)[sp].d(A)[sp].d(T)[sp].d(T)[sp].d(T)[sp].d(T)[sp].d([m5C])[sp].[moe](T)p.[moe](T)p.[moe]([m5C])[sp].[moe](T)}$$$$ (last 3' nucleoside missing)”, the 3 h FOB score was 2 score 0-7.
“RNA1{[moe]([m5C])[sp].[moe](G)p.[moe](T)p.[moe](T)p.[moe](G)[sp].d(T)[sp].d(T)[sp].d(G)[sp].d(A)[sp].d(T)[sp].d(T)[sp].d(T)[sp].d(T)[sp].d(T)[sp].d([m5C])[sp].[moe]([m5C])p.[moe](A)p.[moe](G)[sp].[moe](A)}$$$$ (last 3' nucleoside missing)” showed a 3 h FOB score of 1.75 score 0-7.
Substance “RNA1{[moe]([m5C])[sp].[moe](T)p.[moe](T)p.[moe](A)p.[moe](T)[sp].d(T)[sp].d(A)[sp].d(T)[sp].d(T)[sp].d([m5C])[sp].d(A)[sp].d(T)[sp].d(G)[sp].d(T)[sp].d(T)[sp].[moe]([m5C])p.[moe](T)p.[moe]([m5C])[sp].[moe]([m5C])}$$$$ (last 3' nucleoside missing)” has a 3 h FOB score of 1.25 score 0-7.
Substance “RNA1{[moe](G)[sp].[moe](G)p.[moe](T)p.[moe](T)p.[moe](T)[sp].d(T)[sp].d(T)[sp].d(G)[sp].d(A)[sp].d([m5C])[sp].d(A)[sp].d(A)[sp].d(T)[sp].d(T)[sp].d(A)[sp].[moe](T)p.[moe](G)p.[moe](A)[sp].[moe](G)}$$$$ (last 3' nucleoside missing)” has a 3 h FOB score of 5 score 0-7.
In the case of “RNA1{[moe](T)[sp].[moe]([m5C])p.[moe](T)p.[moe]([m5C])p.[moe](A)[sp].d(G)[sp].d(G)[sp].d(T)[sp].d([m5C])[sp].d(T)[sp].d(A)[sp].d([m5C])[sp].d(T)[sp].d([m5C])[sp].d(T)[sp].[moe](A)p.[moe](T)p.[moe](G)[sp].[moe](T)}$$$$ (last 3' nucleoside missing)”, the 3 h FOB score is reported as 1.25 score 0-7.
“RNA1{[moe](G)[sp].[moe](G)p.[moe]([m5C])p.[moe](T)p.[moe](T)[sp].d(A)[sp].d([m5C])[sp].d(T)[sp].d([m5C])[sp].d(G)[sp].d(G)[sp].d([m5C])[sp].d(T)[sp].d(T)[sp].d(G)[sp].[moe](T)p.[moe](T)p.[moe]([m5C])[sp].[moe]([m5C])}$$$$ (last 3' nucleoside missing)” gave a 3 h FOB score of 3.75 score 0-7.
“RNA1{[moe](G)[sp].[moe](T)p.[moe](G)p.[moe]([m5C])p.[moe](T)[sp].d(T)[sp].d(A)[sp].d(T)[sp].d(T)[sp].d(A)[sp].d(T)[sp].d(T)[sp].d([m5C])[sp].d(A)[sp].d(T)[sp].[moe](G)p.[moe](T)p.[moe](T)[sp].[moe]([m5C])}$$$$ (last 3' nucleoside missing)” gave a 3 h FOB score of 0.5 score 0-7.
“RNA1{[moe](G)[sp].[moe](T)p.[moe](G)p.[moe](A)p.[moe](A)[sp].d(T)[sp].d(A)[sp].d(T)[sp].d(G)[sp].d(T)[sp].d([m5C])[sp].d([m5C])[sp].d(T)[sp].d([m5C])[sp].d(T)[sp].[moe](A)p.[moe](G)p.[moe]([m5C])[sp].[moe]([m5C])}$$$$ (last 3' nucleoside missing)” showed a 3 h FOB score of 2.5 score 0-7.
For “RNA1{[moe](A)[sp].[moe]([m5C])p.[moe](G)p.[moe](T)p.[moe]([m5C])[sp].d([m5C])[sp].d(A)[sp].d(T)[sp].d(T)[sp].d(T)[sp].d(T)[sp].d([m5C])[sp].d(T)[sp].d(G)[sp].d(T)[sp].[moe](G)p.[moe]([m5C])p.[moe](T)[sp].[moe](T)}$$$$ (last 3' nucleoside missing)”, the 3 h FOB score was 1.75 score 0-7.
Work on “RNA1{[moe](T)[sp].[moe]([m5C])p.[moe](T)p.[moe](G)p.[moe](A)[sp].d(G)[sp].d(A)[sp].d(T)[sp].d(T)[sp].d(T)[sp].d(G)[sp].d(T)[sp].d(T)[sp].d(T)[sp].d(T)[sp].[moe](A)p.[moe](G)p.[moe]([m5C])[sp].[moe]([m5C])}$$$$ (last 3' nucleoside missing)” yielded a 3 h FOB score of 3 score 0-7.
“RNA1{[moe](T)[sp].[moe](T)p.[moe](G)p.[moe]([m5C])p.[moe](A)[sp].d(G)[sp].d(G)[sp].d(T)[sp].d(A)[sp].d(A)[sp].d(G)[sp].d(T)[sp].d(T)[sp].d([m5C])[sp].d(T)[sp].[moe]([m5C])p.[moe](A)p.[moe](G)[sp].[moe](G)}$$$$ (last 3' nucleoside missing)” showed a 3 h FOB score of 5.25 score 0-7.
In the case of “RNA1{[moe](A)[sp].[moe]([m5C])p.[moe](T)p.d([m5C])[sp].d(T)[sp].d(A)[sp].d(T)[sp].d(G)[sp].d(T)[sp].d(T)[sp].d(T)[sp].d(T)[sp].d([m5C])[sp].[moe]([m5C])p.[moe](A)p.[moe](G)p.[moe](T)p.[moe](G)[sp].[moe]([m5C])}$$$$ (last 3' nucleoside missing)”, the 3 h FOB score is reported as 1.5 score 0-7.
In the case of “RNA1{[moe](T)[sp].[moe](T)p.[moe](A)p.[moe]([m5C])p.[moe](T)[sp].d([m5C])[sp].d(G)[sp].d(G)[sp].d([m5C])[sp].d(T)[sp].d(T)[sp].d(G)[sp].d(T)[sp].d(T)[sp].d([m5C])[sp].[moe]([m5C])p.[moe](A)p.[moe]([m5C])[sp].[moe](T)}$$$$ (last 3' nucleoside missing)”, the 3 h FOB score is reported as 2.5 score 0-7.
